Assay results reported in patent US20240043928A1, “BIOMARKERS FOR MYELODYSPLASTIC SYNDROME (MDS) AND METHODS OF USING THE SAME” (Eisai R&D Management Co., Ltd., priority 2020, published 2024).

Test: Phase I study NCT02841540: treatment-related adverse events and dose-limiting toxicities
Type: in vivo, human
Description: Patients were enrolled using a conventional 3+3 dose escalation phase I design, with escalations based on a modified Fibonacci sequence scheme (Storer Biometrics. 1989;45(3):925-937). Dose escalations continued until a dose level at which ≥2 patients of the 3-6 enrolled experienced a dose-limiting toxicity (DLT). Maximally tolerated dose (MTD) was defined as the highest dose at which no more than 1 out of 6 patients experienced a DLT. DLTs were defined as any of the following: any Grade 3 or greater study drug-related non-hematologic toxicity except for Grade 3 nausea, vomiting, fatigue, or diarrhea that resolved to Grade 1 or less within 1 week; failure to administer at least 70% of the protocol-specific dose; or prolonged myelosuppression with the persistence of Grade 4 cytopenia in the absence of persistent leukemia or blast increase 21 or more days after suspending dosing. DLTs were assessed during the first 28 days using National Cancer Institute (NCI) Common Toxicity Criteria for Adverse Events (CTCAE) version 4.03.
The primary endpoints measured included occurrence of DLTs, the type and frequency of treatment-emergent adverse events (TEAEs), and serious adverse events (SAEs). Key secondary endpoints included drug pharmacokinetics (PK) and preliminary antitumor activity, such as the overall response rate (ORR), effect of drug therapy on transfusion requirements, and overall survival (OS). Biomarker analyses and drug pharmacodynamics (PD) were included as exploratory endpoints. […] In addition, a second schedule (Schedule II) of 21 days on therapy and a rest of 7 days without therapy was explored. […] However, when limited clinical activity was observed on Schedule I, Schedule II was introduced to test whether more prolonged spliceosome modulation would lead to higher clinical activity. Each treatment cycle was 28 days in length. Patients could continue treatment until disease progression or development of unacceptable toxicity.
Eligibility criteria included normal vitamin A levels and visual acuity that corrected to 20/40 unless a cataract was present. Ophthalmologic evaluation, including fundoscopic imaging and visual evoked potentials, was performed during study screening and periodically throughout the duration of the trial.

[1] = Schedule I, 1, 2, 3.5, & 5 mg QD, N = 25

## C/C(=C\C=C\[C@@H](C)c1ccccn1)[C@H]1OC(=O)C[C@H](O)CC[C@@](C)(O)[C@@H](OC(=O)N2CCN(C)CC2)/C=C/[C@@H]1C [Compound 1, (2S,3S,4E,6S,7R,10R)-7,10-dihydroxy-3,7-dimethyl-12-oxo-2-[(2E,4E,6R)-6-(pyridine-2-yl)hepta-2,4-dien-2-yl]oxacyclododec-4-en-6-yl-4-methylpiperazine-1-carboxylate]
7 mg, Schedule I, first week of study therapy
  adverse event in a patient with SF3B1-mutant lower-risk MDS: developed pancytopenia and marrow aplasia
9 of the 12 subjects
  male share of subjects who reported grade 3 treatment related AEs: 75%
45 of the 63 subjects
  male share of subjects reporting treatment related AEs (all grades): 71%
Schedule I
  MTD (initially defined, not formally confirmed): 30 mg
  recommended QD dose: 30 mg per day
Schedule I, 1 mg-40 mg
  dose dependency in the rate of treatment related TEAEs (all grades): no obvious dose dependency
Schedule I, 7 mg QD, N = 14
  Any TEAE (treatment-related, all grades): 11 (79) n (%)
  Diarrhea (treatment-related TEAE, all grades): 4 (29) n (%)
  Fatigue (treatment-related TEAE, all grades): 2 (14) n (%)
  Nausea (treatment-related TEAE, all grades): 4 (29) n (%)
  Vomiting (treatment-related TEAE, all grades): 2 (14) n (%)
Schedule I, 7 mg, lower-risk MDS and SF3B1 mutation
  patients with DLT marrow aplasia: 1 patient
Schedule I, 10 mg QD, N = 7
  Any TEAE (treatment-related, all grades): 3 (43) n (%)
  Diarrhea (treatment-related TEAE, all grades): 2 (29) n (%)
  Fatigue (treatment-related TEAE, all grades): 1 (14) n (%)
  Nausea (treatment-related TEAE, all grades): 2 (29) n (%)
  Vomiting (treatment-related TEAE, all grades): 2 (29) n (%)
Schedule I, 14 mg QD, N = 5
  Any TEAE (treatment-related, all grades): 5 (100) n (%)
  Diarrhea (treatment-related TEAE, all grades): 5 (100) n (%)
  Fatigue (treatment-related TEAE, all grades): 0 n (%)
  Nausea (treatment-related TEAE, all grades): 1 (20) n (%)
  Vomiting (treatment-related TEAE, all grades): 1 (20) n (%)
Schedule I, 20 mg QD, N = 4
  Any TEAE (treatment-related, all grades): 3 (75) n (%)
  Diarrhea (treatment-related TEAE, all grades): 1 (25) n (%)
  Fatigue (treatment-related TEAE, all grades): 2 (50) n (%)
  Nausea (treatment-related TEAE, all grades): 2 (50) n (%)
  Vomiting (treatment-related TEAE, all grades): 0 n (%)
Schedule I, 30 mg QD, N = 4
  Any TEAE (treatment-related, all grades): 4 (100) n (%)
  Diarrhea (treatment-related TEAE, all grades): 3 (75) n (%)
  Fatigue (treatment-related TEAE, all grades): 1 (25) n (%)
  Nausea (treatment-related TEAE, all grades): 3 (75) n (%)
  Vomiting (treatment-related TEAE, all grades): 0 n (%)
Schedule I, 40 mg
  patients with DLT prolonged QTcF >500 msec (investigator-assessed): 2 out of 6
  subjects reporting grade 3 AEs: 3 of 6
Schedule I, 40 mg QD, N = 6
  Any TEAE (treatment-related, all grades): 5 (83) n (%)
  Diarrhea (treatment-related TEAE, all grades): 5 (83) n (%)
  Fatigue (treatment-related TEAE, all grades): 2 (33) n (%)
  Nausea (treatment-related TEAE, all grades): 3 (50) n (%)
  Vomiting (treatment-related TEAE, all grades): 3 (50) n (%)
Schedule I, 40 mg, N=6
  subjects reporting a treatment related TEAE: 83%
[1]
  Any TEAE (treatment-related, all grades): 19 (76) n (%)
  Diarrhea (treatment-related TEAE, all grades): 7 (28) n (%)
  Fatigue (treatment-related TEAE, all grades): 3 (12) n (%)
  Nausea (treatment-related TEAE, all grades): 3 (12) n (%)
  Vomiting (treatment-related TEAE, all grades): 1 (4) n (%)
Schedule I, N = 65
  Anemia (Grade 3 or 4 treatment-related TEAE): 4 (6) n (%)
  ECG QTcF prolonged (Grade 3 or 4 treatment-related TEAE): 2 (3) n (%)
  Fatigue (Grade 3 or 4 treatment-related TEAE): 2 (3) n (%)
  Hypophosphatemia (Grade 3 or 4 treatment-related TEAE): 0 n (%)
  Nausea (Grade 3 or 4 treatment-related TEAE): 0 n (%)
  Platelet count decreased (Grade 3 or 4 treatment-related TEAE): 2 (3) n (%)
  Sinus bradycardia (Grade 3 or 4 treatment-related TEAE): 0 n (%)
Schedule I, Total, N = 65
  Any TEAE (treatment-related, all grades): 50 (77) n (%)
  Diarrhea (treatment-related TEAE, all grades): 27 (42) n (%)
  Fatigue (treatment-related TEAE, all grades): 11 (17) n (%)
  Nausea (treatment-related TEAE, all grades): 18 (28) n (%)
  Vomiting (treatment-related TEAE, all grades): 9 (14) n (%)
Schedule I, all patients
  diarrhea, treatment-related TEAE: 42%
  fatigue, treatment-related TEAE: 17%
  nausea, treatment-related TEAE: 28%
  vomiting, treatment-related TEAE: 14%
Schedule I, lowest combined dose level (1, 2, 3.5 and 5 mg, N=25)
  subjects reporting a treatment related TEAE: 76%
Schedule II
  MTD (initially defined, not formally confirmed): 14 mg
  recommended QD dose: 14 mg per day
